From US9340577B2, “HLA binding motifs and peptides and their uses” (priority 1992, dated 2016)
No end group written: not given here.

Tests used:
Assay in all cases: biochemical
DRB1*1201 = DRB1*1201 (Homo sapiens, UniProt P01903+P01911, A100R/A169T/D57E/D86V/F55L/H45Y/K41T/L162R/M171V/P40S/Q125H/Q178H/Q39Y/Q99D/R42G/S66L/T262R/V114A/V67L/W38E/Y59H/Y61H/Y89S); format: binding
DRB1*1302 = DRB1*1302 (Homo sapiens, UniProt P01903+P01911, A100E/A169T/K41T/L162R/M171V/P40S/Q125H/Q178H/Q39Y/Q99D/R42S/S66N/T262R/V115G/W38E/Y61H); format: binding
DRB1*0901 = DRB1*0901 (Homo sapiens, UniProt P01903+P01911, A100R/A103E/D57H/D86V/F55Y/F60I/F76Y/I96F/K127E/L162R/M171V/P40D/Q125H/Q99R/R33Q/R42F/S133A/S66N/T210M/V115G/W38K/Y107V/Y59G/Y89S); format: binding
DRB5*0101 = DRB5*0101 (Homo sapiens, UniProt P01903+Q30154); conditions: Binding affinity DRB5 *0101
DR7 (DRB1*0701) = DR7 (DRB1*0701) (Homo sapiens, UniProt P01903+P01911, A100R/A102G/A103Q/D57E/D86V/E43K/F76Y/K127E/L162R/M171V/P40G/Q125H/Q99D/R33Q/R42Y/R54Q/S133A/S66F/T210M/V115G/Y107V/Y59L/Y89S); format: binding
DRB4*0101 = DRB4*0101 (Homo sapiens, UniProt P01903+P13762, G164S); format: binding
DRB3*0101 = DRB3*0101 (Homo sapiens, UniProt P01903+P79483); format: binding
DRB1*1101 = DRB1*1101 (Homo sapiens, UniProt P01903+P01911, A100R/A169T/A87E/I96F/K41T/L162R/M171V/P40S/Q125H/Q178H/Q39Y/Q99D/R42S/S66Y/T262R/V115G/W38E); conditions: Binding affinity DRB1 *1101
DRB1*0802 = DRB1*0802 (Homo sapiens, UniProt P01903+P01911, A100R/A103L/A169T/F76Y/H45Y/I96F/K41T/L162R/M171V/P40S/Q125H/Q178H/Q39Y/Q99D/R218S/R42G/S66Y/V115G/W38E); format: binding
DRB1*1501 = DRB1*1501 (Homo sapiens, UniProt P01903+P01911); format: binding
DR1 (DRB1*0101) = DR1 (DRB1*0101) (Homo sapiens, UniProt P01903+P01911, A100R/D57E/F55L/F60I/F76Y/I96L/L162R/M171V/P40L/Q125E/R42F/V115G/Y59C); format: binding
DR4w4 (DRB1*0401) = DR4w4 (DRB1*0401) (Homo sapiens, UniProt P01903+P01911, A100K/A169T/F76Y/I96L/K127E/L162R/M171V/N62H/P40V/Q125Y/R42H/S133A/S149N/S66Y/V115G/V209L/W38E); format: binding

Chain of DRB1*1101 (P01903 26-254 limits assumed, other chains not shown): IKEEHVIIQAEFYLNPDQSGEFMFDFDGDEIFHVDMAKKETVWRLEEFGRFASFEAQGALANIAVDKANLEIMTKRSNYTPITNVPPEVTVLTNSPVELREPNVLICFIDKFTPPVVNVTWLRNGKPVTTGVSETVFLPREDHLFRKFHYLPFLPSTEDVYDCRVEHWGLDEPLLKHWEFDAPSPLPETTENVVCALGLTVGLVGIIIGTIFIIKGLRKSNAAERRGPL
Chain of DRB1*1302 (P01903 26-254 limits assumed, other chains not shown): as above

Question: For `CC(C)C[C@H](NC(=O)CNC(=O)[C@H](CC(N)=O)NC(=O)[C@H](Cc1ccc(O)cc1)NC(=O)[C@@H](NC(=O)[C@H](CC(=O)O)NC(=O)[C@@H](N)CC(C)C)C(C)C)C(=O)N[C@@H](CC(C)C)C(=O)N1CCC[C@H]1C(=O)N1CCC[C@H]1C(=O)N[C@@H](Cc1ccc(O)cc1)C(=O)N[C@@H](C)C(=O)N[C@@H](CO)C(=O)N[C@@H](CS)C(=O)N[C@@H](Cc1c[nH]cn1)C(=O)O` [Peptide 68.0053], which IC50 (DRB1*1201) is on record?
Answer: 9.75 µM

Question: What about the IC50 (DRB1*1302) of the same compound?
Answer: > 20 µM

Question: And the IC50 (DRB1*0901)?
Answer: > 20 µM

Question: And the IC50 (DRB5*0101)?
Answer: > 20 µM

Question: What about the IC50 (DR7 (DRB1*0701)) of the same compound?
Answer: > 20 µM

Question: And the IC50 (DRB4*0101)?
Answer: > 20 µM

Question: What about the IC50 (DRB3*0101) of the same compound?
Answer: > 20 µM

Question: How did the IC50 (DRB1*1101) turn out when `CSCC[C@H](NC(=O)[C@@H](NC(=O)[C@H](CCCCN)NC(=O)[C@@H](NC(=O)[C@H](C)NC(=O)[C@H](CC(=O)O)NC(=O)[C@@H](N)[C@@H](C)O)C(C)C)C(C)C)C(=O)N[C@@H](CC(=O)O)C(=O)N[C@@H](CC(C)C)C(=O)N1CCC[C@H]1C(=O)N[C@H](C(=O)N[C@@H](CCC(N)=O)C(=O)N[C@@H](CCC(=O)O)C(=O)N1CCC[C@H]1C(=O)N[C@@H](C)C(=O)O)[C@@H](C)O` [Peptide 68.0074] was run?
Answer: > 20 µM

Question: And the IC50 (DRB1*1201)?
Answer: > 20 µM

Question: What about the IC50 (DRB1*0802) of the same compound?
Answer: > 20 µM

Question: What about the IC50 (DRB1*1302) of the same compound?
Answer: > 20 µM

Question: And the IC50 (DRB1*0901)?
Answer: > 20 µM

Question: And the IC50 (DRB5*0101)?
Answer: > 20 µM

Question: And the IC50 (DR7 (DRB1*0701))?
Answer: > 20 µM

Question: What about the IC50 (DRB1*1501) of the same compound?
Answer: > 20 µM

Question: And the IC50 (DR1 (DRB1*0101))?
Answer: > 20 µM

Question: What about the IC50 (DR4w4 (DRB1*0401)) of the same compound?
Answer: > 20 µM

Question: What about the IC50 (DRB3*0101) of the same compound?
Answer: > 20 µM

Question: What does the source list for LSGLHGQDLFGIWSK [Peptide 68.0040]?
Answer: IC50 (DRB1*1101): > 20 µM; IC50 (DRB1*1201): 7.89 µM; IC50 (DRB1*0802): > 20 µM; IC50 (DRB1*1302): > 20 µM; IC50 (DRB1*0901): > 20 µM; IC50 (DRB5*0101): > 20 µM; IC50 (DR7 (DRB1*0701)): > 20 µM; IC50 (DRB1*1501): > 20 µM; IC50 (DR4w4 (DRB1*0401)): > 20 µM; IC50 (DRB3*0101): > 20 µM

Question: `CC(C)C[C@H](NC(=O)CNC(=O)[C@H](CC(N)=O)NC(=O)[C@@H](N)Cc1ccc(O)cc1)C(=O)N[C@@H](CC(C)C)C(=O)N1CCC[C@H]1C(=O)N1CCC[C@H]1C(=O)N[C@@H](Cc1ccc(O)cc1)C(=O)N[C@@H](C)C(=O)N[C@@H](CO)C(=O)N[C@@H](CS)C(=O)N[C@@H](Cc1c[nH]cn1)C(=O)N[C@@H](CC(C)C)C(=O)N[C@H](C(=O)N[C@@H](CCC(=O)O)C(=O)O)[C@@H](C)O` [Peptide 68.0054] was tested. Which IC50 (DRB1*1201) did it give?
Answer: > 20 µM

Question: And the IC50 (DR7 (DRB1*0701))?
Answer: > 20 µM

Question: What about the IC50 (DRB4*0101) of the same compound?
Answer: > 20 µM

Question: What about the IC50 (DRB3*0101) of the same compound?
Answer: > 20 µM

Question: How did the IC50 (DRB1*1201) turn out when `CC(C)C[C@H](NC(=O)CNC(=O)[C@H](CC(N)=O)NC(=O)[C@H](Cc1ccc(O)cc1)NC(=O)[C@@H](NC(=O)[C@H](CC(=O)O)NC(=O)[C@H](CC(C)C)NC(=O)[C@H](C)N)C(C)C)C(=O)N[C@@H](CC(C)C)C(=O)N1CCC[C@H]1C(=O)N1CCC[C@H]1C(=O)N[C@@H](Cc1ccc(O)cc1)C(=O)N[C@@H](C)C(=O)N[C@@H](CO)C(=O)N[C@@H](CS)C(=O)O` [Peptide 68.0052] was run?
Answer: 7.57 µM

Question: And the IC50 (DRB1*1302)?
Answer: > 20 µM

Question: What about the IC50 (DRB1*0901) of the same compound?
Answer: > 20 µM

Question: What about the IC50 (DRB5*0101) of the same compound?
Answer: > 20 µM

Question: What about the IC50 (DR7 (DRB1*0701)) of the same compound?
Answer: > 20 µM

Question: What about the IC50 (DRB4*0101) of the same compound?
Answer: > 20 µM

Question: And the IC50 (DRB3*0101)?
Answer: > 20 µM

Question: What does the source list for QWVLTAAHCLKKNSQ [Peptide 68.0004]?
Answer: IC50 (DRB1*1201): > 20 µM; IC50 (DRB1*0802): > 20 µM; IC50 (DRB1*1302): > 20 µM; IC50 (DRB1*1501): > 20 µM; IC50 (DR4w4 (DRB1*0401)): > 20 µM; IC50 (DRB3*0101): > 20 µM

Question: What does the source list for `CC[C@H](C)[C@H](NC(=O)[C@@H]1CCCN1C(=O)[C@H](CCC(N)=O)NC(=O)[C@@H](N)Cc1c[nH]c2ccccc12)C(=O)N1CCC[C@H]1C(=O)N[C@H](C(=O)N[C@@H](Cc1c[nH]cn1)C(=O)N[C@H](C(=O)N[C@H](C(=O)N1CCC[C@H]1C(=O)N[C@@H](CC(C)C)C(=O)N[C@@H](CO)C(=O)N[C@@H](CCC(=O)O)C(=O)N[C@@H](CC(=O)O)C(=O)N[C@@H](CCC(N)=O)C(=O)O)C(C)C)[C@@H](C)O)C(C)C` [Peptide 68.0039]?
Answer: IC50 (DRB1*1101): > 20 µM; IC50 (DRB1*1201): > 20 µM; IC50 (DRB1*0802): > 20 µM; IC50 (DRB5*0101): > 20 µM; IC50 (DRB1*1501): > 20 µM; IC50 (DR4w4 (DRB1*0401)): > 20 µM; IC50 (DRB3*0101): > 20 µM
